Assays:
A. baumannii PBP2 = biological target: T1, A. baumannii PBP2 (Acinetobacter baumannii, UniProt D0C8Z9); experiment: Bocillin-FL fluorescence polarization competition binding assay, A. baumannii PBP2; conditions: fluorescence polarization competition binding assay using Bocillin-FL; read-out: A. baumannii PBP2 Potency
T1 construct: made in house
T1 sequence (D0C8Z9 1-672): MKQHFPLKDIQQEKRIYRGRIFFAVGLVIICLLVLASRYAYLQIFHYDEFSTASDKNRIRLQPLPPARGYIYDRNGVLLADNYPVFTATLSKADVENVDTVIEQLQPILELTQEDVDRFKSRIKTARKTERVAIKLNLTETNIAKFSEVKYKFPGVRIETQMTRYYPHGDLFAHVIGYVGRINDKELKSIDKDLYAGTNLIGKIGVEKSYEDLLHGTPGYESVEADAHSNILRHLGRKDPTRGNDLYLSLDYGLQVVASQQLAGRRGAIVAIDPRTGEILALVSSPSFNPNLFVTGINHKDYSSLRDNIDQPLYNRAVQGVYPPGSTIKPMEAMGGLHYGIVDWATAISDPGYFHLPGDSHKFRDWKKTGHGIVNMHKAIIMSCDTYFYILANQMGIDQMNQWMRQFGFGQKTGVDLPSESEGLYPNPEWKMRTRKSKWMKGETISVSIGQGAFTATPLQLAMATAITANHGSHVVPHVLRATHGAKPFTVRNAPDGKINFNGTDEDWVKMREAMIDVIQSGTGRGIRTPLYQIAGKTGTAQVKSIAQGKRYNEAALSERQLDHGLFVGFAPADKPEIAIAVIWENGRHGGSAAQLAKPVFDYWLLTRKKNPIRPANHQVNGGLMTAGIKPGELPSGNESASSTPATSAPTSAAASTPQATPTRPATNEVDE
From the text: (§1) Example I: Experimental Method for Penicillin-Binding Protein Binding Assays with Bocillin-FL Via Fluorescence Polarization
(§2) To determine the ability of boronic acid-based test PBP inhibitors to bind Penicillin Binding Proteins (PBPs), Bocillin-FL (fluorescently-labeled penicillin V; ThermoFisher Scientific) was used in a fluorescence polarization (FP) competition binding assay to assess inhibitor binding to PBP2, PBP3 or PBP4 from Escherichia coli (K12), PBP3 from Pseudomonas aeruginosa (PA01), PBP1a, PBP2 and PBP3 from Acinetobacter baumannii (ATCC 19606), and PBP2 from Neiserria gonorrheae (FA19). PBPs were cloned and purified as described previously (E. coli PBPs, King, D. T, et al., ACS Infectious Diseases 2015, 1, 175-184; P. aeruginosa PBP3, Han et. al., PNAS 2010, 107 (51), 22002-22007; A. baumannii PBPs, Penwell et. al., Antimicrob. Agents Chemother. 2015, 59 (3), 1680-1689; N. gonorrhoeae PBP2, Singh et. al., J Biol. Chem. 2019, 294 (38), 14020-14032). To establish assay conditions for competition binding, enzyme titration/saturation binding experiments were initially performed. Bocillin-FL was prepared at 0.2 μM in a buffer comprised of 50 mM Hepes (pH 8.0), 300 mM NaCl and 5% (v/v) glycerol for reactions with E. coli, P. aeruginosa and N. gonorrhoeae PBPs, and 25 mM Tris (pH 8.0), 200 mM NaCl and 10% (v/v) glycerol and 0.005% (v/v) Tween 20 for reactions with A. baumannii PBPs. Saturation binding was performed by mixing 40 μl of PBP solutions ranging in concentrations from 0-24 μM with 40 μl of the 0.2 μM Bocillin-FL solution, in individual wells of a black 384-well microplate. FP was measured immediately upon mixing (Excitation, 490 nm; Emission, 520 nm; g-factor, 0.96), using a Cytation3 (BioTek) microplate reader and measured continuously for up to 120 minutes. […] The competition binding assay (80 μl final volume) was validated using beta-lactams and PBPs at final concentrations of: 1.5 μM, E. coli PBP3; 0.75 μM, P. aeruginosa PBP3; 1 μM A. baumannii PBP1a; 2.5 μM A. baumannii PBP2; 0.2 μM A. baumannii PBP3; and […] N. gonorrhoeae PBP2. Bocillin-FL was at 0.1 μM (0.05 μM with A. baumannii PBP1a) and beta-lactam concentrations ranged from 0-1000 μM. […] Bocillin-FL was added and the FP immediately measured for up to 60 minutes (90 minutes for E. coli PBP2). […] The beta-lactam potency was reported as the concentration of beta-lactam required to reduce the amount of PBP bound-Bocillin-FL by 50% (EC50). […] Binding assays for boronic acid PBP inhibitors were performed in an identical fashion for the respective PBPs

A. baumannii PBP1a = A. baumannii PBP1a (Acinetobacter baumannii, UniProt A0ABX6CK30); experiment: Bocillin-FL fluorescence polarization competition binding assay, A. baumannii PBP1a; conditions: fluorescence polarization competition binding assay using Bocillin-FL; column 1; read-out: A. baumannii PBP1a Potency
From the text: as §1, §2

A. baumannii PBP1a, sequence (A0ABX6CK30 entry or part of it): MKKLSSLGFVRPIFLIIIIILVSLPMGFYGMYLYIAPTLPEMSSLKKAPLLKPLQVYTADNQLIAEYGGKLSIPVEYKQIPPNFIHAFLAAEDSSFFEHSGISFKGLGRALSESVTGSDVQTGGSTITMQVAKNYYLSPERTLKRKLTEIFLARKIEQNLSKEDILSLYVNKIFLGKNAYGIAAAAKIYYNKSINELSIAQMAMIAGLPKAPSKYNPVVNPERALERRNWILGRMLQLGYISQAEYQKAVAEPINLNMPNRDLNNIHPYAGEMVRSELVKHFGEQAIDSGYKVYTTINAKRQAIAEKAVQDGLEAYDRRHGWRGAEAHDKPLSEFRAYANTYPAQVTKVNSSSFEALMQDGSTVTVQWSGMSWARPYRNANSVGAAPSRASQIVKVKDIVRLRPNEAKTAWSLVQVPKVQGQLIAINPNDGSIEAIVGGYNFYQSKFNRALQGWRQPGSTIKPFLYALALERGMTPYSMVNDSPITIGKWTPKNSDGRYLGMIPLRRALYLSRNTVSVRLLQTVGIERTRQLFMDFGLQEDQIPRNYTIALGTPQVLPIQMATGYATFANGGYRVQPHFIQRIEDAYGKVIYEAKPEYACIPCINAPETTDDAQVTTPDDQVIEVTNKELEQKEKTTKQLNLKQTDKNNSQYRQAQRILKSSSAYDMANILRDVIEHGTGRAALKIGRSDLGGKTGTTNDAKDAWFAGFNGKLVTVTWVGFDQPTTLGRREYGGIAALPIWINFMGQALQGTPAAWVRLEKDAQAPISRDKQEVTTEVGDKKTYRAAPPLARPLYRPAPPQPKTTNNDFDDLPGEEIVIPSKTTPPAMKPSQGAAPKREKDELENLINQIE

| Compound | EC50 (A. baumannii PBP2) [µM] | EC50 (A. baumannii PBP1a) [µM] |
| --- | --- | --- |
| NS(=O)(=O)c1cc(O)cc(C(NC(=O)N2CCN(Cc3c(F)cc(O)c(O)c3Cl)C(=O)C2=O)C(=O)N[C@H]2Cc3cccc(C(=O)O)c3OB2O)c1 (stereo partly drawn) [Example 132, (3R)-3-(2-(4-(2-chloro-6-fluoro-3,4-dihydroxybenzyl)-2,3-dioxopiperazine-1-carboxamido)-2-(3-hydroxy-5-sulfamoylphenyl)acetamido)-2-hydroxy-3,4-dihydro-2H-benzo[e][1,2]oxaborinine-8-carboxylic acid] | > 100 | 30 to 100 |
| CCN1CCN(C(=O)NC(C(=O)N[C@H]2Cc3cccc(C(=O)O)c3OB2O)c2c(F)cc(N)cc2F)C(=O)C1=O (stereo partly drawn) [Example 181, (3R)-3-(2-(4-amino-2,6-difluorophenyl)-2-(4-ethyl-2,3-dioxopiperazine-1-carboxamido)acetamido)-2-hydroxy-3,4-dihydro-2H-benzo[e][1,2]oxaborinine-8-carboxylic acid] | > 100 | > 100 |
| NCCCN1CCN(C(=O)N[C@@H](C(=O)N[C@H]2Cc3ccc(F)c(C(=O)O)c3OB2O)c2cc(F)c(O)c(O)c2Cl)C(=O)C1=O (single isomer, unassigned) [Example 180] | > 100 | > 100 |
| NS(=O)(=O)Nc1cccc(C(NC(=O)N2CCN(Cc3c(F)cc(O)c(O)c3Cl)C(=O)C2=O)C(=O)N[C@H]2Cc3cccc(C(=O)O)c3OB2O)c1 (stereo partly drawn) [Example 131, (3R)-3-(2-(4-(2-chloro-6-fluoro-3,4-dihydroxybenzyl)-2,3-dioxopiperazine-1-carboxamido)-2-(3-(sulfamoylamino)phenyl)acetamido)-2-hydroxy-3,4-dihydro-2H-benzo[e][1,2]oxaborinine-8-carboxylic acid] | 30 to 100 | 30 to 100 |
| C[C@@H](O)[C@@H](NC(=O)N1CCN(CCNC(=O)c2c(F)cc(O)c(O)c2Cl)C(=O)C1=O)C(=O)N[C@H]1Cc2ccc(F)c(C(=O)O)c2OB1O [Example 102, (R)-3-((2R,3R)-2-(4-(2-(2-chloro-6-fluoro-3,4-dihydroxybenzamido)ethyl)-2,3-dioxopiperazine-1-carboxamido)-3-hydroxybutanamido)-7-fluoro-2-hydroxy-3,4-dihydro-2H-benzo[e][1,2]oxaborinine-8-carboxylic acid] | > 100 | > 100 |
| NC1(CN2CCN(C(=O)N[C@@H](C(=O)N[C@H]3Cc4ccc(F)c(C(=O)O)c4OB3O)c3c(F)cc(O)c(O)c3Cl)C(=O)C2=O)CC1 (single isomer, unassigned) [Example 134] | 30 to 100 | > 100 |
| NCCN1CCN(C(=O)N[C@@H](C(=O)N[C@H]2Cc3ccc(F)c(C(=O)O)c3OB2O)c2cc(F)c(O)c(O)c2Cl)C(=O)C1=O (single isomer, unassigned) [Example 179] | > 100 | > 100 |
